# Reference: PMC10252614 (International Journal of Molecular Sciences, 2023)
# What was measured:
# human AChE (hAChE) = target: T1, human AChE (hAChE) (Homo sapiens, UniProt P22303); assay: hAChE inhibition, modified Ellman's method; type: biochemical; details: read-out: % of AChE inhibition
# T1 construct: made in house
# Method: (§1) N-Methylpropargylamine-quinazolines were tested for their inhibitory potency against human AChE (hAChE) and human BChE (hBChE) enzymes using the modified spectrophotometric method of Ellman et al..
# (§2) The human recombinant BChE and AChE were prepared at the Department of Toxicology and Military Pharmacy (Faculty of Military Health Sciences, Hradec Kralove, Czech Republic). 5,5′-dithiobis(2-nitrobenzoic acid) (Ellman’s reagent, DTNB), phosphate buffer (PB, pH 7.4), acetylthiocholine (ATC) and butyrylthiocholine (BTC), were purchased from Sigma-Aldrich, Prague, Czech Republic. For measuring purposes, polystyrene Nunc 96-well microplates with a flat-bottom shape (ThermoFisher Scientific, Waltham, MA, USA) were utilized. All the assays were carried out in 0.1 M KH2PO4/K2HPO4 buffer, pH 7.4. Enzyme solutions were prepared at 2.0 units/mL in 2 mL aliquots. The assay medium consisted of a 0.1 M phosphate buffer (pH 7.4), 0.01 M DTNB, the enzyme, and 0.01 M substrate (ATC/BTC iodide solution). Concentration 1 µM was tested and the % of inhibition was calculated. Tested compounds were pre-incubated for 5 min. The reaction was started by immediate addition of 20 μL of the substrate. […] Each concentration was assayed in triplicate. Software GraphPad Prism 5 (San Diego, CA, USA) was used for the statistical data evaluation.
# human BChE (hBChE) = target: T2, human BChE (hBChE) (Homo sapiens, UniProt P06276); assay: hBChE inhibition, modified Ellman's method; type: biochemical; details: 10^-6 M
# T2 construct: made in house
# T2 sequence (P06276 29-602): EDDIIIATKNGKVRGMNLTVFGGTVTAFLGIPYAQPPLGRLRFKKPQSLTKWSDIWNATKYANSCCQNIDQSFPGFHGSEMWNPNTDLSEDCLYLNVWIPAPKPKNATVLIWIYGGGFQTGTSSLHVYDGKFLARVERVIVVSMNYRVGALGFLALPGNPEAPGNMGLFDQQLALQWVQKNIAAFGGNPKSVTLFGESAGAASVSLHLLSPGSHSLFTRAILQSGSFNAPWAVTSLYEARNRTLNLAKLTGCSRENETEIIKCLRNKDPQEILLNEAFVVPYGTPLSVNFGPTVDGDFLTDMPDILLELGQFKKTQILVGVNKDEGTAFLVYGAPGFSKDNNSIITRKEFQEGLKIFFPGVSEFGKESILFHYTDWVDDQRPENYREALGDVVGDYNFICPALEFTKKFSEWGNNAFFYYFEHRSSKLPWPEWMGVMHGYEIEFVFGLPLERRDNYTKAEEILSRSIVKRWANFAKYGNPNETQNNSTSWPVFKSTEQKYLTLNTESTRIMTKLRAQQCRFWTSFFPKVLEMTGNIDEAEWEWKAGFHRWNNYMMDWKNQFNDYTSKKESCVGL
# Method: as §1, §2
# SH-SY5Y cells [1] = assay: dehydrogenase activity, WST-1 test; type: cell-based, human; details: for Dehydrogenase Activity (% of Control): 100 µM, mean ± SD; for change in dehydrogenase activity (in words): 10 µM
# Method: (§3) Next, we tested the effects of the compounds on intracellular dehydrogenase activity and glutathione levels. […] To evaluate the effects of the compounds on cells, we measured total intracellular dehydrogenase activity as a marker of cellular viability and glutathione levels for evaluation of oxidative stress (Table 6).
# Dehydrogenase activity was evaluated by WST-1 test (Roche, Munich, Germany). The WST-1 test measures the activity of intra- and extra-mitochondrial dehydrogenases. […] The change of absorbance was measured by spectrophotometer at the wavelength of 440 nm using SPARK microplate reader (Tecan, Austria) while incubated at 37 °C. The dehydrogenase activity was expressed as the percentage of total cellular dehydrogenase activity relative to that in the control cells (control = 100%).
# hMAO-A = target: T3, hMAO-A (Homo sapiens, UniProt P21397); assay: hMAO-A inhibition mechanism: dialysis reversibility and kinetics; type: biochemical; details: non-linear regression according to Michaelis–Menten
# T3 construct: purchased Merck (Prague, Czech Republic)
# T3 sequence (P21397 1-527): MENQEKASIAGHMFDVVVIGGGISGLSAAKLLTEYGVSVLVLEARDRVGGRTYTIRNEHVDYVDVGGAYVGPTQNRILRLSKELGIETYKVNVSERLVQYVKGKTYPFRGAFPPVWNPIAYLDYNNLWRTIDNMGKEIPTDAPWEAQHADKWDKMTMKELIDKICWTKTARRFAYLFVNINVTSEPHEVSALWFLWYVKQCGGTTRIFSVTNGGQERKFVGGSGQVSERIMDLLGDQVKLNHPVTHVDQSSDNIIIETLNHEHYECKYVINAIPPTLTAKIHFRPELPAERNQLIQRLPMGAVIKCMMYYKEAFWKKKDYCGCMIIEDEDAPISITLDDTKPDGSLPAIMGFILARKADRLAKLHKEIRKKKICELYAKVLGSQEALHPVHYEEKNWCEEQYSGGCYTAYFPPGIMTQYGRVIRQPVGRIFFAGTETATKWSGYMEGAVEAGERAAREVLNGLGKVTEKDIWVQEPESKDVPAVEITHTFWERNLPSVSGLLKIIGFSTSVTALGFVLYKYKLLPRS
# Method: (§4) The MAOs were subsequently incubated with selected compounds at different concentrations and evaluated by non-linear regression according to Michaelis–Menten (Figure 5).
# (§5) Inhibition mechanism was determined by non-linear regression and the double reciprocal method by Lineweaver–Burk using GraphPad Prism 8.2 software. […] The recovery of enzyme activity was determined using the above-mentioned protocol.
# hMAO-B = target: T4, hMAO-B (Homo sapiens, UniProt P27338); assay: hMAO-B inhibition mechanism: dialysis reversibility and kinetics; type: biochemical; details: for mode of hMAO-B inhibition: non-linear regression according to Michaelis–Menten
# T4 construct: purchased Merck (Prague, Czech Republic)
# T4 sequence (P27338 1-520): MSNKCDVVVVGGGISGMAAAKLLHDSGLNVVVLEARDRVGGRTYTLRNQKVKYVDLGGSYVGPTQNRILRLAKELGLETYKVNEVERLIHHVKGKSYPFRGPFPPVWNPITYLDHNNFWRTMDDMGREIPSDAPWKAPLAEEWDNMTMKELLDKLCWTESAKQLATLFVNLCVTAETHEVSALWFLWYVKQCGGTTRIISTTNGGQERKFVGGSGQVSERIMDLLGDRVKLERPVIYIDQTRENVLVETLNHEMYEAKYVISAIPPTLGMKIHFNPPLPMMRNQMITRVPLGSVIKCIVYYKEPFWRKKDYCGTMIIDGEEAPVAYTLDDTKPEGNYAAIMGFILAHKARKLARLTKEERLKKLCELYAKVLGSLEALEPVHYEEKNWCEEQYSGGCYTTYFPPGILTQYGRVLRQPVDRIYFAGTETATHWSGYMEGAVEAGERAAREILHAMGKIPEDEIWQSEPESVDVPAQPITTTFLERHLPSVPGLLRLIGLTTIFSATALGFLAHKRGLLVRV
# Method: as §4, §5
# SH-SY5Y cells [2] = assay: glutathione levels, monochlorobimane assay; type: cell-based, human; details: 10 µM, 24 h
# Method: as §3
# The glutathione (GSH) levels were measured using an optimized monochlorobimane assay. The working solutions of monochlorobimane (MCB, Merck, Rahway, NJ, USA) were prepared fresh at the time of analysis by dilution in Dulbecco’s phosphate buffer (PBS; pH 7; 1 µM, Merck, USA) and tempered at 37 °C for 30 min. After the treatment of cells with I-6e (100 µM), I-6h (100 µM), II-6e (100 µM), II-6h (10–100 µM) and III-6a (10–100 µM), 20 μL of the MCB solution was added to the cells in 96-well microplates and the measurement started immediately (final concentration of MCB in a well was 40 μmol/L) The fluorescence intensity (Ex/Em = 394/490 nm) was measured kinetically for 20 min using SPARK microplate reader (Tecan, Austria). The fluorescence was expressed as the slope of a fluorescence change over time. The GSH levels were expressed as the percentage relative to the GSH levels in control cells (control = 100%).
# T1 sequence (P22303 32-614): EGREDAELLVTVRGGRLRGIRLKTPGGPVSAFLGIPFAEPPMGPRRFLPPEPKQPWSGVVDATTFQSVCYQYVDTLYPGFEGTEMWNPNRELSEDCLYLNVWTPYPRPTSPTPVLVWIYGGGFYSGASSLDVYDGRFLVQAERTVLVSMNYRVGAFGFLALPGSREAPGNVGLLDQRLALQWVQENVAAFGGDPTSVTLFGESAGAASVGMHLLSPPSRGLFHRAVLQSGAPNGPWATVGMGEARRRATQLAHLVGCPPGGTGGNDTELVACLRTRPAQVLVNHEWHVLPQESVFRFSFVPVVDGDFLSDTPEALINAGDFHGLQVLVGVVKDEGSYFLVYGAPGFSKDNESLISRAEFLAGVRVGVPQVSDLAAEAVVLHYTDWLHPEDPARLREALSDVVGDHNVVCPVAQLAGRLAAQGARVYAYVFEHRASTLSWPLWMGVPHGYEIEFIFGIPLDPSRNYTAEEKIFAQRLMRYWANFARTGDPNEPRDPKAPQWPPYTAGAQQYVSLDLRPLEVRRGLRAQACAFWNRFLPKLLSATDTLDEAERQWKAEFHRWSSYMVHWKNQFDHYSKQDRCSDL
Structure (SMILES),inhibition at 1 µM (human AChE (hAChE)),inhibition at 1 µM (human BChE (hBChE)),Dehydrogenase Activity (% of Control) (SH-SY5Y cells [1]; 6 h),Dehydrogenase Activity (% of Control) (SH-SY5Y cells [1]; 24 h),mode of hMAO-A inhibition (hMAO-A),mode of hMAO-B inhibition (hMAO-B),change in glutathione levels (in words) (SH-SY5Y cells [2]),change in dehydrogenase activity (in words) (SH-SY5Y cells [1]; 24 h),reversible/irreversible inhibitory action towards hMAO-B (hMAO-B; recovery of enzyme activity after dialysis)
"C#CCN(C)c1nc(NCCCC)c2ccccc2n1 [I-6e, N4-butyl-N2-methyl-N2-(prop-2-yn-1-yl)quinazoline-2,4-diamine]",3%,4%,44 ± 13 % of Control,49 ± 4 % of Control,,,,,
"C#CCN(C)c1nc(NC2CCCCC2)c2ccccc2n1 [I-6h, N4-cyclohexyl-N2-methyl-N2-(prop-2-yn-1-yl)quinazoline-2,4-diamine]",4%,0%,62 ± 10 % of Control,49 ± 2 % of Control,mixed mode inhibition,mixed mode inhibition,,,
"C#CCN(C)c1nc(NC2CCCCC2)c2ccc(Cl)cc2n1 [II-6h, 7-chloro-N4-cyclohexyl-N2-methyl-N2-(prop-2-yn-1-yl)quinazoline-2,4-diamine]",3%,3%,40 ± 3 % of Control,22 ± 7 % of Control,,mixed mode inhibition,no significant changes,no significant changes,only a partial recovery
"C#CCN(C)c1nc(N)c2cc(OC)ccc2n1 [III-6a, 6-methoxy-N2-methyl-N2-(prop-2-yn-1-yl)quinazoline-2,4-diamine]",9%,1%,107 ± 8 % of Control,128 ± 4 % of Control,mixed mode inhibition,,no significant changes,no significant changes,
